Assay results reported in patent US12655139B2, “Isoxazolidines as RIPK1 inhibitors and use thereof” (SANOFI, priority 2020, dated 2026).
Where a name gives a salt, the structure may show the parent alone.

Assays:
[1] = target: T1, hRIPK1 (aa 1-375) fusion protein (Homo sapiens, UniProt Q13546); test: ADP-Glo kinase assay, RIPK1 autophosphorylation; assay type: biochemical; settings: Table 1
T1 construct: hRIPK1 (aa 1-375) fusion protein
T1 sequence (Q13546 1-375): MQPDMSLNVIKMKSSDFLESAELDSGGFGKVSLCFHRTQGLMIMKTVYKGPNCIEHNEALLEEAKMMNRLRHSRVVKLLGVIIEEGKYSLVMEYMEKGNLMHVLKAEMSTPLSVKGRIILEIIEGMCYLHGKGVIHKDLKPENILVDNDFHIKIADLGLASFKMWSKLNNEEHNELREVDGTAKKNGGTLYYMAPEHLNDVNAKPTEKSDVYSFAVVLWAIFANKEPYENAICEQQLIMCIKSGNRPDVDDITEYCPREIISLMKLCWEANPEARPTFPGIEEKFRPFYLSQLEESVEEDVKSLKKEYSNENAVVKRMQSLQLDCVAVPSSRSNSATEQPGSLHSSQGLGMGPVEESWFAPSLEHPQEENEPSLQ

U937 cells = test: Cellular assay in U937 cells on cell death (necroptosis), TNFα/zVAD.fmk; assay type: cell-based; settings: Homo sapiens, U-937, Table 2; read-out: U937 IC50
In short: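 U937 cells with 100 ng/ml TNFα plus 50 μM zVAD.fmk (pre-addition suspension levels) received 10 compound concentrations (10 μM–0.26 nM or 1 μM–0.07 nM) for 18–24 h at 37 °C. Live cells were read by MTS formazan absorbance at 490 nm after 4 h. % inhibition is relative to the maximal value without TNFα/zVAD.fmk.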

| Compound | IC50 [1] [nM] | IC50 (U937 cells) [nM] |
| --- | --- | --- |
| Cc1cnc([C@@H]2CCON2C(=O)C2CCN(c3cc(C#N)ncn3)CC2)cn1 [compound 91, 6-[4-[(3S)-3-(5-methylpyrazin-2-yl)isoxazolidine-2-carbonyl]-1-piperidyl]pyrimidine-4-carbonitrile] | 14.9 | 183 |
| Cc1cc([C@@H]2CCON2C(=O)C2CCN(c3nccc(C(N)=O)n3)CC2)co1 [compound 110, (S)-2-(4-(3-(5-methylfuran-3-yl)isoxazolidine-2-carbonyl)piperidin-1-yl)pyrimidine-4-carboxamide] | 17.3 | 1.69 |
| N#Cc1cncc([C@@H]2CCON2C(=O)C2CCN(c3ncc(F)c(C(N)=O)n3)CC2)n1 [compound 119] | 21.1 | 5.55 |
| N#Cc1nc(N2CCC(C(=O)N3OCC[C@H]3c3cnccn3)CC2)ncc1F [compound 120, 5-fluoro-2-[4-[(3S)-3-pyrazin-2-ylisoxazolidine-2-carbonyl]-1-piperidyl]pyrimidine-4-carbonitrile] | 18.8 | 1.69 |
| NC(=O)c1ccnc(N2CCC(F)(C(=O)N3OCC[C@H]3c3cnccn3)C(F)(F)C2)n1 (stereo partly drawn) [compound 122, 2-[3,3,4-trifluoro-4-[(3S)-3-pyrazin-2-ylisoxazolidine-2-carbonyl]-1-piperidyl]pyrimidine-4-carboxamide] | 29.3 | 44.2 |
| N#Cc1ccnc(N2CCC(F)(C(=O)N3OCC[C@H]3c3cnccn3)C(F)(F)C2)n1 (stereo partly drawn) [compound 124, 2-[3,3,4-trifluoro-4-[(3S)-3-pyrazin-2-ylisoxazolidine-2-carbonyl]-1-piperidyl]pyrimidine-4-carbonitrile] | 39.2 | 31.3 |
| NC(=O)c1nc(N2CCC(F)(C(=O)N3OCC[C@H]3c3cncc(F)c3)CC2)ncc1F [compound 126, (S)-5-fluoro-2-(4-fluoro-4-(3-(5-fluoropyridin-3-yl)isoxazolidine-2-carbonyl)piperidin-1-yl)pyrimidine-4-carboxamide] | 25 | 39.6 |
| Cc1ccc([C@@H]2CCON2C(=O)C2CCN(c3nccc(C#N)n3)CC2)cn1 [compound 127, (S)-2-(4-(3-(6-methylpyridin-3-yl)isoxazolidine-2-carbonyl)piperidin-1-yl)pyrimidine-4-carbonitrile] | 24.1 | 53.3 |
| N#Cc1cncc([C@@H]2CCON2C(=O)C2CCN(c3nc(Cl)ncc3F)CC2)c1 [compound 130, 5-[(3S)-2-[1-(2-chloro-5-fluoro-pyrimidin-4-yl)piperidine-4-carbonyl]isoxazolidin-3-yl]pyridine-3-carbonitrile] | 22.3 | 22.2 |
| Cc1cncc([C@@H]2CCON2C(=O)C2CCN(c3nccc(C#N)n3)CC2)c1 [compound 131, (S)-2-(4-(3-(5-methylpyridin-3-yl)isoxazolidine-2-carbonyl)piperidin-1-yl)pyrimidine-4-carbonitrile] | 23.9 | 34 |
| Cc1cncc([C@@H]2CCON2C(=O)C2CCN(c3cc(C#N)ncn3)CC2)c1 [compound 133, (S)-6-(4-(3-(5-methylpyridin-3-yl)isoxazolidine-2-carbonyl)piperidin-1-yl)pyrimidine-4-carbonitrile] | 19.8 | 49.4 |
| Cc1cncc([C@@H]2CCON2C(=O)C2CCN(c3cc(C(N)=O)ncn3)CC2)c1 [compound 134, (S)-6-(4-(3-(5-methylpyridin-3-yl)isoxazolidine-2-carbonyl)piperidin-1-yl)pyrimidine-4-carboxamide] | 41.6 | 148 |
| Cc1ncc([C@@H]2CCON2C(=O)C2CCN(c3nccc(C(N)=O)n3)CC2)cc1F [compound 137, 2-[4-[(3S)-3-(5-fluoro-6-methyl-3-pyridyl)isoxazolidine-2-carbonyl]-1-piperidyl]pyrimidine-4-carboxamide] | 21.6 | 16.5 |
| Cc1ncc([C@@H]2CCON2C(=O)C2CCN(c3cc(C#N)ncn3)CC2)cc1F [compound 138, (S)-6-(4-(3-(5-fluoro-6-methylpyridin-3-yl)isoxazolidine-2-carbonyl)piperidin-1-yl)pyrimidine-4-carbonitrile] | 28.1 | 97.2 |
| Cc1ncc([C@@H]2CCON2C(=O)C2CCN(c3cc(C(N)=O)ncn3)CC2)cc1F [compound 139, 6-[4-[(3S)-3-(5-fluoro-6-methyl-3-pyridyl)isoxazolidine-2-carbonyl]-1-piperidyl]pyrimidine-4-carboxamide] | 33.6 | 44.7 |
| Cc1c(F)cncc1[C@@H]1CCON1C(=O)C1CCN(c2nccc(C#N)n2)CC1 [compound 140, (S)-2-(4-(3-(5-fluoro-4-methylpyridin-3-yl)isoxazolidine-2-carbonyl)piperidin-1-yl)pyrimidine-4-carbonitrile] | 71.3 | 550 |
| Cc1c(F)cncc1[C@@H]1CCON1C(=O)C1CCN(c2nccc(C(N)=O)n2)CC1 [compound 141, (S)-2-(4-(3-(5-fluoro-4-methylpyridin-3-yl)isoxazolidine-2-carbonyl)piperidin-1-yl)pyrimidine-4-carboxamide] | 81.9 | 254 |
| Cc1c(F)cncc1[C@@H]1CCON1C(=O)C1CCN(c2cc(C(N)=O)ncn2)CC1 [compound 142, (S)-6-(4-(3-(5-fluoro-4-methylpyridin-3-yl)isoxazolidine-2-carbonyl)piperidin-1-yl)pyrimidine-4-carboxamide] | 407 | 3000 |
| Cc1c(F)cncc1[C@@H]1CCON1C(=O)C1CCN(c2cc(C#N)ncn2)CC1 [compound 143, (S)-6-(4-(3-(5-fluoro-4-methylpyridin-3-yl)isoxazolidine-2-carbonyl)piperidin-1-yl)pyrimidine-4-carbonitrile] | 323 | 1760 |
| COc1nccc(N2CCC(C(=O)N3OCC[C@H]3c3cncc(C#N)c3)CC2)n1 [compound 144, 5-[(3S)-2-[1-(2-methoxypyrimidin-4-yl)piperidine-4-carbonyl]isoxazolidin-3-yl]pyridine-3-carbonitrile] | 75.2 | 536 |
| N#Cc1cncc([C@@H]2CCON2C(=O)C2CCN(c3ccnc(C#N)n3)CC2)c1 [compound 145, 4-[4-[(3S)-3-(5-cyano-3-pyridyl)isoxazolidine-2-carbonyl]-1-piperidyl]pyrimidine-2-carbonitrile] | 46.6 | 149 |
| CSc1nccc(N2CCC(C(=O)N3OCC[C@H]3c3cncc(C#N)c3)CC2)n1 [compound 146, 5-[(3S)-2-[1-(2-methylsulfanylpyrimidin-4-yl)piperidine-4-carbonyl]isoxazolidin-3-yl]pyridine-3-carbonitrile] | 45.8 | 229 |
| N#Cc1cncc([C@@H]2CCON2C(=O)C2CCN(c3ccnc(Cl)n3)CC2)c1 [compound 147, 5-[(3S)-2-[1-(2-chloropyrimidin-4-yl)piperidine-4-carbonyl]isoxazolidin-3-yl]pyridine-3-carbonitrile] | 30.6 | 56.9 |
| CCOC(=O)c1nccc(N2CCC(C(=O)N3OCC[C@H]3c3cncc(C#N)c3)CC2)n1 [compound 149, ethyl 4-[4-[(3S)-3-(5-cyano-3-pyridyl)isoxazolidine-2-carbonyl]-1-piperidyl]pyrimidine-2-carboxylate] | 370 | 6170 |
| Cc1coc([C@@H]2CCON2C(=O)C2CCN(c3nccc(C#N)n3)CC2)c1 [compound 150, (S)-2-(4-(3-(4-methylfuran-2-yl)isoxazolidine-2-carbonyl)piperidin-1-yl)pyrimidine-4-carbonitrile] | 69 | 23.5 |
| Cc1coc([C@@H]2CCON2C(=O)C2CCN(c3nccc(C(N)=O)n3)CC2)c1 [compound 151, (S)-2-(4-(3-(4-methylfuran-2-yl)isoxazolidine-2-carbonyl)piperidin-1-yl)pyrimidine-4-carboxamide 2,2,2-trifluoroacetate salt] | 100 | 25 |
| Cc1coc([C@@H]2CCON2C(=O)C2CCN(c3cc(C#N)ncn3)CC2)c1 [compound 152, (S)-6-(4-(3-(4-methylfuran-2-yl)isoxazolidine-2-carbonyl)piperidin-1-yl)pyrimidine-4-carbonitrile 2,2,2-trifluoroacetate salt] | 132 | 128 |
| Cc1coc([C@@H]2CCON2C(=O)C2CCN(c3cc(C(N)=O)ncn3)CC2)c1 [compound 153, (S)-6-(4-(3-(4-methylfuran-2-yl)isoxazolidine-2-carbonyl)piperidin-1-yl)pyrimidine-4-carboxamide 2,2,2-trifluoroacetate salt] | 102 | 99.8 |
| Cc1cc([C@@H]2CCON2C(=O)C2CCN(c3nccc(C#N)n3)CC2)co1 [compound 162, (S)-2-(4-(3-(5-methylfuran-3-yl)isoxazolidine-2-carbonyl)piperidin-1-yl)pyrimidine-4-carbonitrile] | 20.1 | 5.41 |
| Cc1cc([C@@H]2CCON2C(=O)C2CCN(c3cc(C#N)ncn3)CC2)co1 [compound 163, (S)-6-(4-(3-(5-methylfuran-3-yl)isoxazolidine-2-carbonyl)piperidin-1-yl)pyrimidine-4-carbonitrile] | 20.8 | 6.04 |
